Measured values from US9328386B2, “Markers for susceptibility to an inhibitor of an Src-family kinase” (Evotec (München) GmbH, priority 2011, dated 2016).
Read-outs that look alike come from different tables or passages of the source.

What was measured:
Experiment in all cases: Cellular growth inhibition (CellTiter Glo viability assay)
Format in all cases: cell-based
H520 NSCLC cell line = details: Homo sapiens
H460 NSCLC cell line = details: Homo sapiens
H157 NSCLC cell line = details: Homo sapiens
LouNH91 NSCLC cell line = details: Homo sapiens
HCC4006 NSCLC cell line = details: Homo sapiens
H2172 NSCLC cell line = details: Homo sapiens
H1666 NSCLC cell line = details: Homo sapiens
HCC2279 NSCLC cell line = details: Homo sapiens
H2030 NSCLC cell line = details: Homo sapiens
Calu6 NSCLC cell line = details: Homo sapiens
H1648 NSCLC cell line = details: Homo sapiens
H2009 NSCLC cell line = details: Homo sapiens
HCC366 NSCLC cell line = details: Homo sapiens
HCC78 NSCLC cell line = details: Homo sapiens
H322M NSCLC cell line = details: Homo sapiens, NCI-H322M
H1395 NSCLC cell line = details: Homo sapiens
PC9 NSCLC cell line = details: Homo sapiens
H2077 NSCLC cell line = details: Homo sapiens
[1] = 96 h, read-out: GI50 this paper

## Cc1nc(Nc2ncc(C(=O)Nc3c(C)cccc3Cl)s2)cc(N2CCN(CCO)CC2)n1 [dasatinib, N-(2-chloro-6-methylphenyl)-2-[[6-[4-(2-hydroxyethyl)piperazin-1-yl]-2-methylpyrimidin-4-yl]amino]-1,3-thiazole-5-carboxamide]
H520 NSCLC cell line; NCI-H520, 96 h, read-out: GI50 this paper
  GI50: 1.43 µM
H520 NSCLC cell line; NCI-H520, read-out: Sensitivity Dasatinib
  IC50: > 1 µM
H520 NSCLC cell line; NCI-H520, H520, 96 hours of treatment, read-out: GI50
  GI50: 1.43 µM
H460 NSCLC cell line; NCI-H460, 96 h, read-out: GI50 this paper
  GI50: 3.9 µM
H460 NSCLC cell line; NCI-H460, read-out: Sensitivity Dasatinib
  IC50: > 1 µM
H460 NSCLC cell line; NCI-H460, H460, 96 hours of treatment, read-out: GI50
  GI50: 3.9 µM
H157 NSCLC cell line; NCI-H157, 96 h, read-out: GI50 this paper
  GI50: 2.63 µM
H157 NSCLC cell line; NCI-H157, read-out: Sensitivity Dasatinib
  IC50: > 1 µM
H157 NSCLC cell line; NCI-H157, H157, 96 hours of treatment, read-out: GI50
  GI50: 2.63 µM
LouNH91 NSCLC cell line; LOU-NH91, 96 h, read-out: GI50 this paper
  GI50: 0.068 µM
LouNH91 NSCLC cell line; LOU-NH91, read-out: Sensitivity Dasatinib, LouNH91
  IC50: < 1 µM
LouNH91 NSCLC cell line; LOU-NH91, LouNH91, 96 hours of treatment, read-out: GI50
  GI50: 0.068 µM
HCC4006 NSCLC cell line; HCC4006, 96 h, read-out: GI50 this paper
  GI50: 0.95 µM
HCC4006 NSCLC cell line; HCC4006, read-out: Sensitivity Dasatinib
  IC50: < 1 µM
HCC4006 NSCLC cell line; HCC4006, 96 hours of treatment, read-out: GI50
  GI50: 0.95 µM
H2172 NSCLC cell line; NCI-H2172, 96 h, read-out: GI50 this paper
  GI50: 5.85 µM
H2172 NSCLC cell line; NCI-H2172, read-out: Sensitivity Dasatinib
  IC50: > 1 µM
H2172 NSCLC cell line; NCI-H2172, H2172, 96 hours of treatment, read-out: GI50
  GI50: 5.85 µM
H1666 NSCLC cell line; NCI-H1666, 96 h, read-out: GI50 this paper
  GI50: 0.076 µM
H1666 NSCLC cell line; NCI-H1666, read-out: Sensitivity Dasatinib
  IC50: < 1 µM
H1666 NSCLC cell line; NCI-H1666, H1666, 96 hours of treatment, read-out: GI50
  GI50: 0.076 µM
HCC2279 NSCLC cell line; [1]
  GI50: 0.045 µM
HCC2279 NSCLC cell line; read-out: Sensitivity Dasatinib, HCC2279
  IC50: < 1 µM
HCC2279 NSCLC cell line; HCC2279, 96 hours of treatment, read-out: GI50
  GI50: 0.045 µM
H2030 NSCLC cell line; NCI-H2030, 96 h, read-out: GI50 this paper
  GI50: 0.022 µM
H2030 NSCLC cell line; NCI-H2030, read-out: Sensitivity Dasatinib
  IC50: < 1 µM
H2030 NSCLC cell line; NCI-H2030, H2030, 96 hours of treatment, read-out: GI50
  GI50: 0.022 µM
Calu6 NSCLC cell line; Calu-6, 96 h, read-out: GI50 this paper
  GI50: 2.8 µM
Calu6 NSCLC cell line; Calu-6, read-out: Sensitivity Dasatinib
  IC50: > 1 µM
Calu6 NSCLC cell line; Calu-6, 96 hours of treatment, read-out: GI50
  GI50: 2.8 µM
H1648 NSCLC cell line; NCI-H1648, 96 h, read-out: GI50 this paper
  GI50: 0.079 µM
H1648 NSCLC cell line; NCI-H1648, read-out: Sensitivity Dasatinib
  IC50: < 1 µM
H1648 NSCLC cell line; NCI-H1648, H1648, 96 hours of treatment, read-out: GI50
  GI50: 0.079 µM
H2009 NSCLC cell line; NCI-H2009, 96 h, read-out: GI50 this paper
  GI50: 0.085 µM
H2009 NSCLC cell line; NCI-H2009, read-out: Sensitivity Dasatinib
  IC50: < 1 µM
H2009 NSCLC cell line; NCI-H2009, H2009, 96 hours of treatment, read-out: GI50
  GI50: 0.085 µM
HCC366 NSCLC cell line; HCC366, 96 h, read-out: GI50 this paper
  GI50: 0.017 µM
HCC366 NSCLC cell line; HCC366, read-out: Sensitivity Dasatinib
  IC50: < 1 µM
HCC366 NSCLC cell line; HCC366, 96 hours of treatment, read-out: GI50
  GI50: 0.017 µM
HCC78 NSCLC cell line; HCC78, 96 h, read-out: GI50 this paper
  GI50: 17.1 µM
HCC78 NSCLC cell line; HCC78, read-out: Sensitivity Dasatinib
  IC50: > 1 µM
HCC78 NSCLC cell line; HCC78, 96 hours of treatment, read-out: GI50
  GI50: 17.1 µM
H322M NSCLC cell line; [1]
  GI50: 0.311 µM
H322M NSCLC cell line; read-out: Sensitivity Dasatinib
  IC50: < 1 µM
H322M NSCLC cell line; H322M, 96 hours of treatment, read-out: GI50
  GI50: 0.311 µM
H1395 NSCLC cell line; NCI-H1395, 96 h, read-out: GI50 this paper
  GI50: 4.7 µM
H1395 NSCLC cell line; NCI-H1395, read-out: Sensitivity Dasatinib
  IC50: > 1 µM
H1395 NSCLC cell line; NCI-H1395, H1395, 96 hours of treatment, read-out: GI50
  GI50: 4.7 µM
PC9 NSCLC cell line; [1]
  GI50: 0.02 µM
PC9 NSCLC cell line; PC-9, read-out: Sensitivity Dasatinib, PC9
  IC50: < 1 µM
PC9 NSCLC cell line; PC9, 96 hours of treatment, read-out: GI50
  GI50: 0.02 µM
H2077 NSCLC cell line; [1]
  GI50: 4.75 µM
H2077 NSCLC cell line; read-out: Sensitivity Dasatinib, H2077
  IC50: > 1 µM
H2077 NSCLC cell line; H2077, 96 hours of treatment, read-out: GI50
  GI50: 4.75 µM
